According to patent publication US7598258B2, “Quinoline derivatives and quinazoline derivatives inhibiting autophosphorylation of macrophage colony stimulating factor receptor” (Kirin Beer Kabushiki Kaisha, priority 2002, dated 2009):

Target: T1, mouse c-fms (Mus musculus, UniProt P09581)
T1 construct: Macrophage-like cell line BAC-1.2F5 which expresses c-fms as a M-CSF receptor on cell membranes; endogenous in cells; host or cells: BAC-1.2F5 mouse macrophage-like cell line
T1 sequence (P09581 20-977): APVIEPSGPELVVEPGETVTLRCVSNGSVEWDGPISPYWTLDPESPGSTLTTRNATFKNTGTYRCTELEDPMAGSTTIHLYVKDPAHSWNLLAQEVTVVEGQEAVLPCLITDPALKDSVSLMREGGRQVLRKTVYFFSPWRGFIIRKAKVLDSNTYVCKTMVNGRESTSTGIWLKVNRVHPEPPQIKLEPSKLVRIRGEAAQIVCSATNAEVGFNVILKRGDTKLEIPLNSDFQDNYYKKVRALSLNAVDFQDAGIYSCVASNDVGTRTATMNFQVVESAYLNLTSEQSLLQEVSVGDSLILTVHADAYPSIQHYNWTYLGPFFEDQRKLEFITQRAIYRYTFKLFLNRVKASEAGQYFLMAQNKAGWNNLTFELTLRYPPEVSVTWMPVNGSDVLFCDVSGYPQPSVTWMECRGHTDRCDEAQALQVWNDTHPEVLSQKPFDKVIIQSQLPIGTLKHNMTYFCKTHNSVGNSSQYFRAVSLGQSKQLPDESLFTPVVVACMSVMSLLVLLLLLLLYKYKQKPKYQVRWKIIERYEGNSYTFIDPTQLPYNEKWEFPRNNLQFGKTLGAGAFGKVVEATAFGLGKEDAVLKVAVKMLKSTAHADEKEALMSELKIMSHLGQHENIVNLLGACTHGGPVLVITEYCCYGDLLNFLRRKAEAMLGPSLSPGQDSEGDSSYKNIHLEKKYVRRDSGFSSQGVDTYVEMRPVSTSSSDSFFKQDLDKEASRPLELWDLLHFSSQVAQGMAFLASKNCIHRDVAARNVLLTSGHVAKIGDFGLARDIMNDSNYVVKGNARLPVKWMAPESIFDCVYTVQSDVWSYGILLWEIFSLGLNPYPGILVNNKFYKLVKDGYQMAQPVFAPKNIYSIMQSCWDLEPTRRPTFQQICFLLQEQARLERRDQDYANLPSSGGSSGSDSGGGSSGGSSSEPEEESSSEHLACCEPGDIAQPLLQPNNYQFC
Test: Inhibition of c-fms autophosphorylation in macrophage-like cell line BAC-1.2F5 by M-CSF stimulation (ELISA)
Assay type: cell-based
Settings: BAC-1.2F5 cells, human recombinant M-CSF 50 ng/ml, read-out: c-fms autophosphorylation 50% inhibitory concentration (IC50)
Experimental: Macrophage-like cell line BAC-1.2F5 which expresses c-fms as a M-CSF receptor on cell membranes (CLAUDIA M. et al., J. Cell. Physiol., 130, 420-427 (1987), “Isolation and Characterization of a Cloned Growth Factor Dependent Macrophage Cell Line, BAC1.2F5”) was cultured at 37° C. in a DMEM medium containing L-cell supernatant and 10% fetal calf serum (GIBCO BRL) in a 5% CO2 incubator until about 50 to 70% confluent. The harvested cells were inoculated into wells, each containing the same medium, in a collagen type I coat 96-well flat-bottom plate in an amount of 5.0×10^4 per well, and cultured at 37° C. for 12 hr. Thereafter, the medium was replaced with a DMEM medium containing a 0.1% fetal calf serum and cultured for 12 hr. Thereafter, a test compound dissolved in dimethyl sulfoxide was added to each well, and cells were incubated at 37° C. for one hr. Human recombinant M-CSF was added to a final concentration of 50 ng/ml, and cells were stimulated at 37° C. for 6 min. After the medium was removed, 50 μl of a solubilization buffer (20 mM HEPES (pH 7.4), 150 mM NaCl, 0.2% Triton X-100, 10% glycerol, 5 mM sodium orthovanadylate, 5 mM disodium ethylenediaminetetraacetate, and 2 mM Na4P2O7) was added thereto. The mixture was shaken at 4° C. for 2 hr to prepare a cell extract as an assay sample which was then used for an ELISA assay.
The plate for the ELISA assay was prepared as follows. Phosphate buffered saline (50 μl, pH 7.4) containing 5 μg/ml of anti-phospho-tyrosine antibody (PY20; Transduction Laboratories) was added to a microplate for ELISA (Maxisorp; purchased from NUNC), followed by standing at 4° C. overnight to be immobilized on the wells. Thereafter, each well was washed twice with 200 μl of a Ca- and Mg-free phosphate buffer containing 0.1% Tween-20 (hereinafter referred to as “PBS-T”), and 200 μl of a blocking solution (Dainippon Pharmaceutical Co. Ltd.: BlockAce) was added to each well, and the wells were then allowed to stand at room temperature for 2 hr for blocking.
Separately, phosphate buffered saline (50 μl, pH 7.4) containing 5 μg/ml of anti-phospho-tyrosine antibody (PY20; Transduction Laboratories) was added to a microplate for ELISA (Maxisorp; purchased from NUNC), followed by standing at 4° C. overnight to form a solid phase on the wells. After washing of the plate, 300 μl of a blocking solution was added, followed by standing at room temperature for 2 hr to perform blocking. After washing, the whole quantity of the cell extract was transferred to the wells, and the plate was then allowed to stand at 4° C. overnight. After washing, anti-c-fms antiserum (Upstate Biotechnology, Inc.) was allowed to react at room temperature for one hr, and, after washing, a peroxidase-labeled anti-rabbit Ig antibody (Amersham) was allowed to react at room temperature for one hr. After washing, a chromophoric substrate for peroxidase (Sumitomo Bakelite Co., Ltd.) was added thereto to initiate a reaction. After a suitable level of color development, a reaction termination solution was added to stop the reaction, and the absorbance at 450 nm was measured with a microplate reader. The c-fms phosphorylation activity for each well was determined by presuming the absorbance without the addition of the test compound and with the addition of M-CSF to be 100% c-fms phosphorylation activity and the absorbance without the addition of the test compound and M-CSF to be 0% c-fms phosphorylation activity. The concentration of the test compound was varied on several levels, the c-fms phosphorylation inhibitory rate was determined for each case, and the concentration of the test compound necessary for inhibiting 50% of c-fms phosphorylation (IC50) was calculated.

| Compound | IC50 [nM] |
| --- | --- |
| CC[C@H](NC(=O)Nc1ccc(Oc2ccnc3cc(OC)c(OC)cc23)cc1)c1ccccc1 [Example 37, N-{4-[(6,7-Dimethoxy-4-quinolyl)oxy]phenyl}-N′-[(1S)-1-phenylpropyl]urea] | 5 |
| CC[C@@H](NC(=O)Nc1ccc(Oc2ccnc3cc(OC)c(OC)cc23)cc1)c1ccccc1 [Example 38, N-{4-[(6,7-Dimethoxy-4-quinolyl)oxy]phenyl}-N′-[(1R)-1-phenylpropyl]urea] | 5.7 |
| COc1cc2nccc(Oc3ccc(NC(=O)N[C@H]4CCc5ccccc54)cc3)c2cc1OC [Example 43, N-[(1S)-2,3-Dihydro-1H-1-indenyl]-N′-{4-[(6,7-dimethoxy-4-quinolyl)oxy]phenyl}urea] | 3.1 |
| COc1cc2nccc(Oc3ccc(NC(=O)N[C@@H]4CCc5ccccc54)cc3)c2cc1OC [Example 44, N-[(1R)-2,3-Dihydro-1H-1-indenyl]-N′-{4-[(6,7-dimethoxy-4-quinolyl)oxy]phenyl}urea] | 1.8 |
| COc1cc(Oc2ccnc3cc(OC)c(OC)cc23)ccc1NC(=O)N[C@@H](C)c1nccs1 [Example 75, N-{4-[(6,7-Dimethoxy-4-quinolyl)oxy]-2-methoxyphenyl}-N′-[(1S)-1-(1,3-thiazol-2-yl)ethyl]urea] | 2.1 |
| COc1cc(Oc2ccnc3cc(OC)c(OC)cc23)ccc1NC(=O)N[C@H](C)c1nccs1 [Example 76, N-{4-[(6,7-Dimethoxy-4-quinolyl)oxy]-2-methoxyphenyl}-N′-[(1R)-1-(1,3-thiazol-2-yl)ethyl]urea] | 7.1 |
| COc1cc2nccc(Oc3ccc(NC(=O)NC(C)c4nc(C)c(C)s4)cc3)c2cc1OC (centres unmarked) [Example 94, N-{4-[(6,7-Dimethoxy-4-quinolyl)oxy]phenyl}-N′-[1-(4,5-dimethyl-1,3-thiazol-2-yl)ethyl]urea] | 53.5 |
| COc1cc2nccc(Oc3ccc(NC(=O)NC(C)c4nc(C)c(C)s4)c(F)c3)c2cc1OC (centres unmarked) [Example 95, N-{4-[(6,7-Dimethoxy-4-quinolyl)oxy]-2-fluorophenyl}-N′-[1-(4,5-dimethyl-1,3-thiazol-2-yl)ethyl]urea] | 38.3 |
| COc1cc2nccc(Oc3ccc(NC(=O)NC(C)c4nc(C)c(C)s4)c(C)c3)c2cc1OC (centres unmarked) [Example 96, N-{4-[(6,7-Dimethoxy-4-quinolyl)oxy]-2-methylphenyl}-N′-[1-(4,5-dimethyl-1,3-thiazol-2-yl)ethyl]urea] | 147 |
| COc1cc2nccc(Oc3ccc(NC(=O)NC(C)c4nc(C)c(C)s4)c(C(F)(F)F)c3)c2cc1OC (centres unmarked) [Example 97, N-[4-[(6,7-Dimethoxy-4-quinolyl)oxy]-2-(trifluoromethyl)phenyl]-N′-[1-(4,5-dimethyl-1,3-thiazol-2-yl)ethyl]urea] | 120 |
| COc1cc2nccc(Oc3cc(C)c(NC(=O)NC(C)c4nc(C)c(C)s4)cc3C)c2cc1OC (centres unmarked) [Example 98, N-{4-[(6,7-Dimethoxy-4-quinolyl)oxy]-2,5-dimethylphenyl}-N′-[1-(4,5-dimethyl-1,3-thiazol-2-yl)ethyl]urea] | 426 |
